{"source": "ChEMBL document CHEMBL4665541", "about": "“Search for new therapeutic options for the uncommon pathogen Mycobacterium chimaera: an open drug discovery approach” (Lancet Microbe, 2021)", "data": [{"tested_on": "Mycobacterium intracellulare subsp. chimaera", "assay": "(§1) Inhibition of mycobacterial growth using the resazurin microtitre cell viability assay (REMA), compounds at final concentration of 20 µM (2% v/v DMSO). Hits were classed as compounds that inhibited bacterial growth by 70% or more compared to drug-free controls.", "assay_type": "functional, organism-based", "parameters": "conc 20 uM", "details": "NCTC13781", "units": {"Survival": "%"}, "values": [{"substance": "MMV687706", "Survival": 92.7}, {"substance": "MMV687729", "Survival": 30.5}, {"substance": "MMV687730", "Survival": 87.3}, {"substance": "MMV687747", "Survival": 90.2}, {"substance": "MMV687749", "Survival": 96.9}, {"substance": "MMV687762", "Survival": 101}, {"substance": "MMV687765", "Survival": 59}, {"substance": "MMV687775", "Survival": 98.2}, {"substance": "MMV687776", "Survival": 99.3}, {"substance": "MMV687794", "Survival": 99.9}, {"substance": "MMV687796", "Survival": 102}, {"substance": "MMV687798", "Survival": 1.47}, {"substance": "MMV687800", "Survival": 6.51}, {"substance": "MMV687801", "Survival": 31.5}, {"substance": "MMV687803", "Survival": 10.8}, {"substance": "MMV687807", "Survival": 82.9}, {"substance": "MMV687812", "Survival": 41}, {"substance": "MMV687813", "Survival": 34.4}, {"substance": "MMV688122", "Survival": 96.7}, {"substance": "MMV688124", "Survival": 107}, {"substance": "MMV688125", "Survival": 107}, {"substance": "MMV688178", "Survival": 97.1}, {"substance": "MMV688179", "Survival": 2.34}, {"substance": "MMV688180", "Survival": 101}, {"substance": "MMV688262", "Survival": 113}, {"substance": "MMV688270", "Survival": 98.1}, {"substance": "MMV688271", "Survival": 3.73}, {"substance": "MMV688273", "Survival": 106}, {"substance": "MMV688274", "Survival": 112}, {"substance": "MMV688279", "Survival": 114}, {"substance": "MMV688283", "Survival": 112}, {"substance": "MMV688313", "Survival": 104}, {"substance": "MMV688327", "Survival": -1.9}, {"substance": "MMV688330", "Survival": 103}, {"substance": "MMV688345", "Survival": 86.9}, {"substance": "MMV688350", "Survival": 92.5}, {"substance": "MMV688352", "Survival": 103}, {"substance": "MMV688360", "Survival": 94.3}, {"substance": "MMV688361", "Survival": 88.9}, {"substance": "MMV688362", "Survival": 90.2}, {"substance": "MMV688364", "Survival": 89.9}, {"substance": "MMV688371", "Survival": 107}, {"substance": "MMV688372", "Survival": 112}, {"substance": "MMV688407", "Survival": 106}, {"substance": "MMV688410", "Survival": 105}, {"substance": "MMV688411", "Survival": 89.9}, {"substance": "MMV688415", "Survival": 97.2}, {"substance": "MMV688416", "Survival": 94.7}, {"substance": "MMV688417", "Survival": 106}, {"substance": "MMV688466", "Survival": 106}, {"substance": "MMV688467", "Survival": 111}, {"substance": "MMV688469", "Survival": 82.8}, {"substance": "MMV688470", "Survival": 95.7}, {"substance": "MMV688471", "Survival": 98.6}]}, {"tested_on": "Mycobacterium tuberculosis", "assay": "as §1", "assay_type": "functional, organism-based", "parameters": "conc 20 uM", "details": "H37Rv", "units": {"Survival": "%"}, "values": [{"substance": "MMV687706", "Survival": 99.8}, {"substance": "MMV687729", "Survival": 13.1}, {"substance": "MMV687730", "Survival": 71.2}, {"substance": "MMV687747", "Survival": 63.6}, {"substance": "MMV687749", "Survival": 73.3}, {"substance": "MMV687762", "Survival": 95.8}, {"substance": "MMV687765", "Survival": 26.4}, {"substance": "MMV687775", "Survival": 91}, {"substance": "MMV687776", "Survival": 90.5}, {"substance": "MMV687794", "Survival": 90.9}, {"substance": "MMV687796", "Survival": 9.75}, {"substance": "MMV687798", "Survival": 7.23}, {"substance": "MMV687800", "Survival": 6.34}, {"substance": "MMV687801", "Survival": 58.9}, {"substance": "MMV687803", "Survival": 17.4}, {"substance": "MMV687807", "Survival": 4.61}, {"substance": "MMV687812", "Survival": 26}, {"substance": "MMV687813", "Survival": 5.59}, {"substance": "MMV688122", "Survival": 2.87}, {"substance": "MMV688124", "Survival": 94.7}, {"substance": "MMV688125", "Survival": 13.8}, {"substance": "MMV688178", "Survival": 103}, {"substance": "MMV688179", "Survival": 1.64}, {"substance": "MMV688180", "Survival": 94}, {"substance": "MMV688262", "Survival": 8.6}, {"substance": "MMV688270", "Survival": 83}, {"substance": "MMV688271", "Survival": 1.1}, {"substance": "MMV688273", "Survival": 97.8}, {"substance": "MMV688274", "Survival": 86}, {"substance": "MMV688279", "Survival": 32.5}, {"substance": "MMV688283", "Survival": 89.4}, {"substance": "MMV688313", "Survival": 102}, {"substance": "MMV688327", "Survival": 7.39}, {"substance": "MMV688330", "Survival": 99.6}, {"substance": "MMV688345", "Survival": 86}, {"substance": "MMV688350", "Survival": 105}, {"substance": "MMV688352", "Survival": 89.6}, {"substance": "MMV688360", "Survival": 100}, {"substance": "MMV688361", "Survival": 92.9}, {"substance": "MMV688362", "Survival": 103}, {"substance": "MMV688364", "Survival": 82.7}, {"substance": "MMV688371", "Survival": 111}, {"substance": "MMV688372", "Survival": 88.8}, {"substance": "MMV688407", "Survival": 94}, {"substance": "MMV688410", "Survival": 95.3}, {"substance": "MMV688411", "Survival": 90}, {"substance": "MMV688415", "Survival": 88.9}, {"substance": "MMV688416", "Survival": 99.5}, {"substance": "MMV688417", "Survival": 82.3}, {"substance": "MMV688466", "Survival": 93.2}, {"substance": "MMV688467", "Survival": 95.5}, {"substance": "MMV688469", "Survival": 90.9}, {"substance": "MMV688470", "Survival": 94.8}, {"substance": "MMV688471", "Survival": 87.8}]}, {"tested_on": "Mycobacteroides abscessus", "assay": "as §1", "assay_type": "functional, organism-based", "parameters": "conc 20 uM", "details": "ATCC19977", "units": {"Survival": "%"}, "values": [{"substance": "MMV687706", "Survival": 108}, {"substance": "MMV687729", "Survival": 112}, {"substance": "MMV687730", "Survival": 18.8}, {"substance": "MMV687747", "Survival": 108}, {"substance": "MMV687749", "Survival": 113}, {"substance": "MMV687762", "Survival": 112}, {"substance": "MMV687765", "Survival": 116}, {"substance": "MMV687775", "Survival": 122}, {"substance": "MMV687776", "Survival": 124}, {"substance": "MMV687794", "Survival": 109}, {"substance": "MMV687796", "Survival": 99}, {"substance": "MMV687798", "Survival": 11.5}, {"substance": "MMV687800", "Survival": 109}, {"substance": "MMV687801", "Survival": 114}, {"substance": "MMV687803", "Survival": 24.5}, {"substance": "MMV687807", "Survival": 103}, {"substance": "MMV687812", "Survival": 26.9}, {"substance": "MMV687813", "Survival": 102}, {"substance": "MMV688122", "Survival": 111}, {"substance": "MMV688124", "Survival": 116}, {"substance": "MMV688125", "Survival": 114}, {"substance": "MMV688178", "Survival": 107}, {"substance": "MMV688179", "Survival": 17.6}, {"substance": "MMV688180", "Survival": 116}, {"substance": "MMV688262", "Survival": 106}, {"substance": "MMV688270", "Survival": 101}, {"substance": "MMV688271", "Survival": 108}, {"substance": "MMV688273", "Survival": 100}, {"substance": "MMV688274", "Survival": 113}, {"substance": "MMV688279", "Survival": 110}, {"substance": "MMV688283", "Survival": 116}, {"substance": "MMV688313", "Survival": 94.8}, {"substance": "MMV688327", "Survival": 18.6}, {"substance": "MMV688330", "Survival": 99.9}, {"substance": "MMV688345", "Survival": 113}, {"substance": "MMV688350", "Survival": 102}, {"substance": "MMV688352", "Survival": 107}, {"substance": "MMV688360", "Survival": 100}, {"substance": "MMV688361", "Survival": 116}, {"substance": "MMV688362", "Survival": 109}, {"substance": "MMV688364", "Survival": 111}, {"substance": "MMV688371", "Survival": 119}, {"substance": "MMV688372", "Survival": 104}, {"substance": "MMV688407", "Survival": 116}, {"substance": "MMV688410", "Survival": 105}, {"substance": "MMV688411", "Survival": 114}, {"substance": "MMV688415", "Survival": 101}, {"substance": "MMV688416", "Survival": 103}, {"substance": "MMV688417", "Survival": 104}, {"substance": "MMV688466", "Survival": 115}, {"substance": "MMV688467", "Survival": 118}, {"substance": "MMV688469", "Survival": 87.3}, {"substance": "MMV688470", "Survival": 106}, {"substance": "MMV688471", "Survival": 109}]}]}
